Test results: ChEMBL document CHEMBL3301562, “MMV Box screening against Plasmodium falciparum protein kinases and aminoacyl tRNA synthetases”

Legend:
Format in all cases: functional
[1] = target: T1, Cdk-related protein kinase 6 (Plasmodium falciparum, UniProt O77239); test: Final concentrations were 1.5 uM ATP, 5 mM MnCl2, and 15 ug/ml PK6 in a buffer of 100 mM Tris-HCl (pH 7.5). 50 ug/mL MBP was provided as the substrate; 10 uM staurosporine was used as a control inhibitor. Incubation time was 3 hours and 40 minutes.The catalytic activity of each kinase was considered proportional to ATP consumed, as determined from measurements of residual [ATP] with the luciferase-based reagent Kinase-Glo (Promega) following incubation. Luminescence (proportional to residual [ATP]) was measured on the plate readers FLx800 (BioTek Instruments, Winooski, VT, USA) and MicroBeta2.
T1 sequence (O77239 whole entry): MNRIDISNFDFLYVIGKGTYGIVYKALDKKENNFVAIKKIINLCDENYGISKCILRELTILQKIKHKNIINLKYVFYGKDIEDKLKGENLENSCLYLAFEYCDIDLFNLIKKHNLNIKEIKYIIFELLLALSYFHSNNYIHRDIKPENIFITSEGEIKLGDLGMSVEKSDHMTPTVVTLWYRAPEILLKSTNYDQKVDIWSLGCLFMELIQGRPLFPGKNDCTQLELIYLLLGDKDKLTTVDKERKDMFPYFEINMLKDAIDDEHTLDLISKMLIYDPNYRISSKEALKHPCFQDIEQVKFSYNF

[2] = target: T2, Putative uncharacterized protein pk7 (Plasmodium falciparum, UniProt O96214); test: Final concentrations were 1 uM ATP, 2 mM DTT, 20 mM MgCl2, 2 mM MnCl2, 0.01% BSA, and 6 ug/ml PK7, in a buffer of 20 mM Tris-HCl (pH 7.5). The enzyme itself was the only substrate present (since autophosphorylation occurs); 100 uM 1NA-PP1 was used as a control inhibitor. Incubation time was 3 hours.
T2 sequence (O96214 whole entry): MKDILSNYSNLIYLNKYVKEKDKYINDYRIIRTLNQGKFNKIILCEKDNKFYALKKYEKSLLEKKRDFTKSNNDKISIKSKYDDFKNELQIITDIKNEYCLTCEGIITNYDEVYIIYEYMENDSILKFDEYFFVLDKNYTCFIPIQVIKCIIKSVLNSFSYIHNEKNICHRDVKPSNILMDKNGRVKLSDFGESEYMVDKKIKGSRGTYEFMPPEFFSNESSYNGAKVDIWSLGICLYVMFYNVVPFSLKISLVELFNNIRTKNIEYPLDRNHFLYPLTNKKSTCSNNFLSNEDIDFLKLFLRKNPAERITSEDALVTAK

[3] = target: T3, Mitogen-activated protein kinase (Plasmodium falciparum, UniProt Q25917); test: Final concentrations were 1 uM ATP, 0.5 mM DTT, 1 mM MgCl2, 0.5 mg/mL BSA, and 10 ug/ml MAP2 in a buffer of 50 mM HEPES (pH 7.0). 0.5 mg/mL histone III-S served as the substrate (13); 100 uM AMP-PNP, an ATP analog, was used as a control inhibitor. Incubation time was 4 hours.
T3 sequence (Q25917 whole entry): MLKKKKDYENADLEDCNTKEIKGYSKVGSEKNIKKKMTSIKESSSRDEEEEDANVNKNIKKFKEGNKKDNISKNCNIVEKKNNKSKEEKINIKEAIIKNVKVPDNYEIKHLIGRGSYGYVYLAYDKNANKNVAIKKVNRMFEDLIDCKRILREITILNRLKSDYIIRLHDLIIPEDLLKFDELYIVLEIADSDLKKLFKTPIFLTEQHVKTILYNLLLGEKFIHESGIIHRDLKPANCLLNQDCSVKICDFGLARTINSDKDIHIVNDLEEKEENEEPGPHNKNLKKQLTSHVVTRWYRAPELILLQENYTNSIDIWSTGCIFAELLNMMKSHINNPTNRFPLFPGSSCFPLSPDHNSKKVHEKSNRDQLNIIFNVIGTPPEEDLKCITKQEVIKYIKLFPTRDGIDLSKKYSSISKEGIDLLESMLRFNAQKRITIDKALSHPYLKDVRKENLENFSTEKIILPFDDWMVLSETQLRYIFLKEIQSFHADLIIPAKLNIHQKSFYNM

[4] = target: Calcium-dependent protein kinase 1 (Plasmodium falciparum, UniProt P62344); test: MMV: CDPK1 Protein kinase inhibition assay using recombinant PfCDPK1, syntide 2 peptide substrate, ATP and KinaseGlo to measure % inhibition at 1 uM MMV box compound.
[5] = target: T4, Calcium-dependent protein kinase 4 (Plasmodium falciparum (isolate 3D7), UniProt Q8IBS5); test: MMV: CDPK4 Protein kinase inhibition assay using recombinant PfCDPK4, syntide2 peptide substrate, ATP and KinaseGlo to measure % inhibition at 1 uM MMV box compound.
T4 sequence (Q8IBS5 whole entry): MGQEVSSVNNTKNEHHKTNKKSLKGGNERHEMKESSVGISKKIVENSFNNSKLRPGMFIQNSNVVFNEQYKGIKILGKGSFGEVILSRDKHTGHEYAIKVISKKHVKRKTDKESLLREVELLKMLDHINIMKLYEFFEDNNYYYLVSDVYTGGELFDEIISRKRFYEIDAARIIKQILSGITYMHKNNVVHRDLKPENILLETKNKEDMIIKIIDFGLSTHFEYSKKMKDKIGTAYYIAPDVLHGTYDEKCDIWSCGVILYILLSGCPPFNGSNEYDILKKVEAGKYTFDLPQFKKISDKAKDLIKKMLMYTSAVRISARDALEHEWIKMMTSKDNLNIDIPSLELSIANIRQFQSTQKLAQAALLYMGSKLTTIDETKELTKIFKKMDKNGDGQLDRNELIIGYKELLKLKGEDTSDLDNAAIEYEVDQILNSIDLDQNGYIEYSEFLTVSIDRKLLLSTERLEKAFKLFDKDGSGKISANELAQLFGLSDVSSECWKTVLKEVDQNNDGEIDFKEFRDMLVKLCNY

Proline--tRNA ligase = target: T5, Proline--tRNA ligase (Plasmodium falciparum (isolate 3D7), UniProt Q8I5R7); test: MMV: ProRS recombinant Plasmodium falciparum Prolyl-tRNA-synthetase, assay with yeast tRNA, ATP, and proline and 3 uM MMV malaria box compound, assay read out with kinase glo as % inhibition.
T5 sequence (Q8I5R7 whole entry): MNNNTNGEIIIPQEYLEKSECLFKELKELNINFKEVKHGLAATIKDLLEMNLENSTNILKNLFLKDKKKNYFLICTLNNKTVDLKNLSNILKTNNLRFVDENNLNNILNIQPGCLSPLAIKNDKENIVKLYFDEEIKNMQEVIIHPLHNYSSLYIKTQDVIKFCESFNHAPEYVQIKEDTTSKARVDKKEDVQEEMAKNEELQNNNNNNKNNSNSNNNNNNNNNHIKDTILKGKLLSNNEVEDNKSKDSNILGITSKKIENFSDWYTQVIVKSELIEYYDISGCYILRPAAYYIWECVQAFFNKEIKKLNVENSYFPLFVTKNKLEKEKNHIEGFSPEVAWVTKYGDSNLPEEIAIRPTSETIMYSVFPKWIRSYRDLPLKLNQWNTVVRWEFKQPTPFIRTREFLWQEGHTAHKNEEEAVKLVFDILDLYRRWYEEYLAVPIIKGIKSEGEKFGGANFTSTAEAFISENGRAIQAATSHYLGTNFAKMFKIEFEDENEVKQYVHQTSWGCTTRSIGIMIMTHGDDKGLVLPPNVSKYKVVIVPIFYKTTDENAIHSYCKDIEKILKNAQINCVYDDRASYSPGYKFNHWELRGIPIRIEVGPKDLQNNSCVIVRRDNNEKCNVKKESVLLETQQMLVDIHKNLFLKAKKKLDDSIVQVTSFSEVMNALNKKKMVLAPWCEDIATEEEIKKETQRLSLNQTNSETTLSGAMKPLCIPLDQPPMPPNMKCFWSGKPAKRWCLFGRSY

Lysine--tRNA ligase = Lysine--tRNA ligase (Plasmodium falciparum (isolate 3D7), UniProt Q8IDJ8); test: MMV: KRS recombinant Plasmodium falciparum Lysyl-tRNA-synthetase, assay with yeast tRNA, ATP, and lysine and 3 uM MMV malaria box compound, assay read out with kinase glo as % inhibition.
Chain of Lysine--tRNA ligase (Q8IDJ8 whole entry): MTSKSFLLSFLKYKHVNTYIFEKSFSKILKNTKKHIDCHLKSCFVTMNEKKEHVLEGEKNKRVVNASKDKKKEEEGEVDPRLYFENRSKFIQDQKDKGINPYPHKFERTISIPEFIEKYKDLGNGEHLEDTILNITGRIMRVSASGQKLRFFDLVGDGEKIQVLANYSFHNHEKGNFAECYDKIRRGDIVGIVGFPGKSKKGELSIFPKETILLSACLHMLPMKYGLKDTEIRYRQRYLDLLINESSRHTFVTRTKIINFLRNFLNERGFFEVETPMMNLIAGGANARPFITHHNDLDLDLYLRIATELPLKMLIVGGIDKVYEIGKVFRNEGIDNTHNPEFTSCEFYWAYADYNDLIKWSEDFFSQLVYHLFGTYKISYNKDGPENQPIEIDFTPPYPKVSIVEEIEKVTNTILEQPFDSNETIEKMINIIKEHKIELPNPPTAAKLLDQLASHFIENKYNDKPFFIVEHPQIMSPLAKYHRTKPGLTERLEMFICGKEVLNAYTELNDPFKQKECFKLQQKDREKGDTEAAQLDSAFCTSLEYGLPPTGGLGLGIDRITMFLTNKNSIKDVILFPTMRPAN

Chain of Calcium-dependent protein kinase 1 (P62344 whole entry): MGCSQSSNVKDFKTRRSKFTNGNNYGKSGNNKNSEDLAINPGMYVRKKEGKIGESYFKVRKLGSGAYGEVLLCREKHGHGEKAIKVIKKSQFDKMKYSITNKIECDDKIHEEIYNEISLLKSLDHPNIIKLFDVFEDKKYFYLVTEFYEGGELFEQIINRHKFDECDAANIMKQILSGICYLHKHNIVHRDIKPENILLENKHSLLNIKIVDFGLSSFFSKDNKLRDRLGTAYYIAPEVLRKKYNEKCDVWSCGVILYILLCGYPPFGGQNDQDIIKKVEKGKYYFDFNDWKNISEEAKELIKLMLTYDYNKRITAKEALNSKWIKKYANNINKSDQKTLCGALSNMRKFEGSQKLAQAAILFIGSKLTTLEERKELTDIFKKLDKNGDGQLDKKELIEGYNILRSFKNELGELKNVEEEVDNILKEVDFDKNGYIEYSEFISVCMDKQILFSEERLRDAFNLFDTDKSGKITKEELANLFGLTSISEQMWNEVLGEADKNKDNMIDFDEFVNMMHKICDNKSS

| Structure (SMILES) | IC50 [1] [nM] | IC50 [2] [nM] | IC50 [3] [nM] | IC50 [4] [nM] | IC50 [5] [nM] | IC50 (Proline--tRNA ligase) [nM] | IC50 (Lysine--tRNA ligase) [nM] |
| --- | --- | --- | --- | --- | --- | --- | --- |
| CN(C)CCCNc1c2ccccc2nc2ccccc12 | > 1000 | > 1000 | > 1000 | > 1000 | > 1000 | > 2500 | > 2500 |
| COc1ccc(-c2c(C)nn3c(N)c(C#N)cnc23)cc1OC | > 1000 | > 1000 | > 1000 | > 1000 | > 1000 | > 2500 | > 2500 |
| CSC1=NC(=Nc2c(C)cccc2C)C2(CCC(C(C)(C)C)CC2)N1c1ccc(Cl)cc1 (stereo not given) | > 1000 | > 1000 | > 1000 | > 1000 | > 1000 | > 2500 | > 2500 |
| COc1ccc(-c2cc3c(SCC(=O)Nc4cc(C(F)(F)F)ccc4Cl)nccn3n2)cc1 | > 1000 | > 1000 | > 1000 | > 1000 | > 1000 | > 2500 | > 2500 |
| Cc1cc(Nc2ccc3ccccc3c2)n2ncnc2n1 | > 1000 | > 1000 | > 1000 | > 1000 | > 1000 | > 2500 | > 2500 |
| COc1ccc(-c2nc(NC(=O)CS(=O)(=O)c3ccc(F)cc3)sc2C)cc1 | > 1000 | > 1000 | > 1000 | > 1000 | > 1000 | > 2500 | > 2500 |
| O=C(O)C1Cc2c([nH]c3ccccc23)C(c2ccc(Cl)cc2Cl)N1 (stereo not given) | > 1000 | > 1000 | > 1000 | > 1000 | > 1000 | > 2500 | > 2500 |
| COc1cccc(NC(=O)[C@H](C(C)C)n2c(=O)[nH]c3ccccc3c2=O)c1 | > 1000 | > 1000 | > 1000 | > 1000 | > 1000 | > 2500 | > 2500 |
| CCOC(=O)c1cn(CC)c2cc(N(C)CCc3ccc(OC)c(OC)c3)c(F)cc2c1=O | > 1000 | > 1000 | > 1000 | > 1000 | > 1000 | > 2500 | > 2500 |
| CC(C)(C)c1ccc(O)c(CNC2CCCCC2)c1 | > 1000 | > 1000 | > 1000 | > 1000 | > 1000 | > 2500 | > 2500 |
